Experimental data reported in patent publication US6989396B2, “Tropane alkaloid multidrug resistance inhibitors from Erythroxylum pervillei and use of the same” (The Board of Trustees of the University of Illinois, priority 2001, dated 2006).
“And” between values parts separate entries of the source, which are not always exact repeats. Identical values can stand only once. Like-named read-outs stand apart in the source and are kept apart here. Marks after values point to notes of the source that are not given here.

Columns and labels:
[1] = system: SKOV3 (ovarian adenocarcinoma); experiment: Cytotoxicity in ovarian adenocarcinoma SKOV3 (pGp -ve); type: cell-based; conditions: Homo sapiens, SK-OV-3, read-out: IC50 SKOV3 (pGp − ve)
Method: (§1) Cytotoxicity assay. Compounds 1–9 were evaluated for cytotoxic activity against a panel of human cancer cell lines, including KB-V1 in the presence and absence of VLB, according to an established protocol (68).

KB-V1 cells [2] = experiment: Reversal of MDR, cell survival assay: KB-V1 with or without vinblastine; type: cell-based, human; conditions: for IC50: Homo sapiens, KB-V1, 72 hours
Method: One part of a natural product drug discovery program involves monitoring the potential of plant extracts to reverse multiple drug resistance. […] To investigate the potential of plant extracts or compounds to reverse multidrug-resistance, KB-V1 cells are treated with different concentrations of plant extracts or compounds in the presence (1 μg/ml) or absence of vinblastine.
(§2) Cytotoxic potential. The cytotoxic potential of test substances with KB-3, KB-V1 and KB-8-5 cells was determined as described previously (24). Briefly, various concentrations of test compounds (dissolved in 10 μl of 10% DMSO) were transferred to 96-well plates, and 190 μl aliquots of cell suspensions (5×10^4 cells/ml) were added to each well. The plates then were incubated for 72 hours at 37° C. (100% humidity with a 5% CO2 atmosphere in air), and 100 μl of cold 20% aqueous trichloroacetic acid were added to the growth medium in each well to fix the cells. The cultures were incubated at 4° C. for 30 minutes, washed, air-dried, stained with sulforhodamine B solution, and washed with 1% acetic acid. […] In each case, a zero-day control was performed by adding an equivalent number of cells to several wells and incubating at 37° C. for 30 minutes, and processing as described above. Optical density values obtained with the zero-day control were subtracted, and cell survival, relative to control (solvent-treated) cultures, was calculated. The cytotoxic potential of the compounds with CEM and CEM/VLB100 cells was determined as described by Beck et al. (30). Cells were grown in 24-well plates at a density of 5–6×10^5 cells/ml. At 48 hours, the cell number was determined using a Coulter Counter, with a channelizer to distinguish cells from debris.

Lu1, lung cancer = experiment: In vitro cytotoxicity, human tumor panel: Lu1; type: cell-based; conditions: Homo sapiens, read-out: ED50 Lu1
Method: as §1

KB-8-5 cells = experiment: In vivo hollow fiber test: KB-8-5; parameters: species or system NCr nu/nu mice
Method: (§3) In vivo hollow fiber test. […] Confluent monolayers of KB-3, KB-V1 or KB-8-5 cells were harvested, collected by centrifugation and resuspended in conditioned medium at a concentration of 7.5×10^5 cells/ml.
(§4) Test compounds were administrated once daily by intraperitoneal injection from day 3–6 after implantation. Body weights were measure daily.
(§5) After incubating at 37° C. for 4 hours, the culture medium was aspirated and the samples were washed twice with normal saline containing 2.5% protamine sulfate solution by overnight incubation at 4° C. […] The formazan was extracted from each sample with DMSO (250 μl/well) for 4 hours at room temperature on a rotation platform.

CEM/VLB100 cells = experiment: MDR reversal in drug-resistant human leukemia CEM/VLB100 cells; type: cell-based; conditions: for IC50: Homo sapiens
Method: as §2

[3] = target: T1, Pgp (KB-V1 cell membrane vesicles) (Homo sapiens, UniProt P08183); experiment: [3H]Vinblastine accumulation with KB-V1 cell membrane vesicles; type: binding
T1 construct: Cell membrane vesicles were prepared from KB-V1 cells following literature procedures; endogenous in cells; host or cells: KB-V1 cells (vinblastine-selected multidrug-resistant KB line); plasma membrane vesicles
Method: [^3H]Vinblastine accumulation with KB-V1 vesicles. Cell membrane vesicles were prepared from KB-V1 cells following literature procedures (31, 32) with some modifications. Medium was removed from KB-V1 cells in log growth phase (about 80% confluence) and the cells were rinsed with ice-cold PBS followed by ice-cold PBS containing 2 mM EDTA. Aprotinin (1 mg/ml) was then added, and, after a 10 minutes incubation at room temperature, the cells were harvested by gentle aspiration with a serological pipette and collected by centrifugation (100×g for 5 minutes). The cells were suspended in 0.25 M sucrose buffer (0.01 M Tris-HCl, pH 7.5, containing 0.25 M sucrose, 0.2 mM CaCl2, 1 mM EDTA) and homogenized with a Polytron at 2,500 rpm for 30 seconds. […] The homogenate then was diluted with four volumes of 0.025 M sucrose solution (0.01 M Tris-HCl, pH 7.5, containing 0.025 M sucrose) and centrifuged (1,000×g for 10 minutes). […] The interface (about 5 ml) was collected and diluted with four volumes of 0.25 M sucrose, 0.01 M Tris-HCl, pH 7.5, and centrifuged at 100,000×g for 1 hour. The resulting vesicle pellet was suspended in PBS containing 1 mM phenylmethylsulfonyl fluoride, using a 25-gauge needle, and stored at −80° C. Protein content was determined using a bicinchoninic acid protein assay kit with BSA as a standard (33).
Vinblastine accumulation with membrane vesicles assays were performed in 96-well plates as described previously (23, 24). […] Various concentrations of test samples, dissolved in 5 μl of DMSO, were then added (final volume, 100 μl), and incubations were conducted at ambient temperature for 20 minutes. For kinetic studies, various concentrations of [^3H]vinblastine were used. Reactions were terminated by aspirating the contents of each well onto a glass filter filter (printed type A filtermats, Wallac) using a 96-well harvester (Harvester 96, Tomtec). […] Nonspecific binding was determined by performing similar incubations with reaction mixtures containing a 1,000-fold excess of unlabeled vinblastine. Nonspecific binding was subtracted from all total-binding data to yield specific binding.

Col2, colon cancer = experiment: In vitro cytotoxicity, human tumor panel: Col2; type: cell-based; conditions: Homo sapiens, read-out: ED50 Col2
Method: as §1

[4] = system: KB, oral epidermoid carcinoma; experiment: In vitro cytotoxicity, human tumor panel: KB; type: cell-based; conditions: Homo sapiens, read-out: ED50 KB
Method: as §1

KB-V1 cells [5] = experiment: In vivo hollow fiber test: KB-V1; parameters: species or system NCr nu/nu mice
Method: as §3, §4, §5

[6] = vinblastine 1 μg/ml, listed as pervilleine A
[7] = summation of single-agent inhibitions
[8] = pervilleine A 5 μM, verapamil 10 μM

T1 sequence (P08183 whole entry): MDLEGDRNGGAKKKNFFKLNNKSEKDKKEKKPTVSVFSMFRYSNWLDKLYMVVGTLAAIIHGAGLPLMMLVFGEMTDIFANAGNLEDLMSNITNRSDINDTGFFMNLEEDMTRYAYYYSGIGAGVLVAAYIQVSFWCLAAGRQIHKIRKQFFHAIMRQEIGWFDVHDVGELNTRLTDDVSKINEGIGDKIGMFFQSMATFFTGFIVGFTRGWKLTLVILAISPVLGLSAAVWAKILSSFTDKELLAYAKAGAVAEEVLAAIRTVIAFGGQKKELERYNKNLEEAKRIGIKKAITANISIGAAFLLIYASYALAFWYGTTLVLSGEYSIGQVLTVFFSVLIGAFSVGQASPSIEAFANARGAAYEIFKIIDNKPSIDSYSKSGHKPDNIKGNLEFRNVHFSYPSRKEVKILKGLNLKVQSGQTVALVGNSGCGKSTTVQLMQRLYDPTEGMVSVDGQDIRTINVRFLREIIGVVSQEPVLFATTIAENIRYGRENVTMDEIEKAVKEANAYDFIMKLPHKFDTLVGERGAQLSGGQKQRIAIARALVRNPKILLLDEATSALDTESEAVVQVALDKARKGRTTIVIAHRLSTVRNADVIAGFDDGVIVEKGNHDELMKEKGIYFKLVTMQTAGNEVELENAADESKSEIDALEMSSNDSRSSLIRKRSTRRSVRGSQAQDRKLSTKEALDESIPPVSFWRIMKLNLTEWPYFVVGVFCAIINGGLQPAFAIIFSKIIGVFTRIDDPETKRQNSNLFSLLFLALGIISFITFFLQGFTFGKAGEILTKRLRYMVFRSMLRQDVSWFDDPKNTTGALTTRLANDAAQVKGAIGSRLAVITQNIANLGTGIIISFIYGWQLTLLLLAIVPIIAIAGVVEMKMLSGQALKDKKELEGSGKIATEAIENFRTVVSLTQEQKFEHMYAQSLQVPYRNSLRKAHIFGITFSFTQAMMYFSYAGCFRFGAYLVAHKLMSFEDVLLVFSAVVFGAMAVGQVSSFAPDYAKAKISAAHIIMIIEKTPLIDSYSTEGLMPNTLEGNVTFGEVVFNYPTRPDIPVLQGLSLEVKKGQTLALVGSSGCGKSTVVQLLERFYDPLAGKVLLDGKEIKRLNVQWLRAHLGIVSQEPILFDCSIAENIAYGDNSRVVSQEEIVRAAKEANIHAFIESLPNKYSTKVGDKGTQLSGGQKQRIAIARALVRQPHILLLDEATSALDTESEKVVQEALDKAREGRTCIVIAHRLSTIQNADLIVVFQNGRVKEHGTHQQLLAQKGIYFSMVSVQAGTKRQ

Molecule `COc1cc(C=CC(=O)O[C@H]2[C@@H](O)[C@@H]3C[C@H](OC(=O)c4cc(OC)c(OC)c(OC)c4)C[C@H]2N3C)cc(OC)c1OC` [Compound 3, 3α-(3,4,5-trimethoxybenzoyloxy)-6β-(3,4,5-trimethoxycinnamoyloxy)-7β-hydroxytropane] has an IC50 [1] greater than 10 µM, an IC50 (KB-V1 cells [2]; absence of vinblastine, read-out: IC50 KB-V1 (−)) greater than 34 µM and an IC50 (KB-V1 cells [2]; presence of vinblastine (1 μg/ml), read-out: IC50 KB-V1 (+)) of 0.36 µM. The “Ratio of IC50 values KB-3/[KB-V1 (+)]” value (KB-V1 cells [2]; vinblastine 1 μg/ml, listed as Pervilleine A) was 66.6^d, the “Ratio of IC50 values KB-3/[KB-V1 (+)]” value (KB-V1 cells [2]; [6]) was 66.6 and the “Ratio of IC50 values [KB-V1 (−)]/[KB-V1 (+)]” value (KB-V1 cells [2]; [6]) was greater than 95. The IC50 (Lu1, lung cancer) was greater than 20 µg/mL, the “Calculated inhibition (vinblastine + reversing agent as single agents), KB-8-5, i.p. site” value (KB-8-5 cells; [7]) was 4.5% and the “Calculated inhibition (vinblastine + reversing agent as single agents), KB-8-5, s.c. site” value (KB-8-5 cells; [7]) was 4.9%. The “Observed inhibition from coadministration with vinblastine, KB-8-5, s.c. site” value (KB-8-5 cells; vinblastine 100 μg/kg + reversing agent 0.136 mmol/kg) was 28 (P = 0.008) %, the “Observed inhibition from coadministration with vinblastine, KB-8-5, i.p. site” value (KB-8-5 cells; vinblastine 100 μg/kg + reversing agent 0.136 mmol/kg, listed as pervilleine A) was 74.7 (P < 0.0001) % and the “Growth inhibition, single agent, KB-8-5, s.c. site” value (KB-8-5 cells; vinblastine 100 μg/kg, reversing agents 0.136 mmol/kg) was 2.6%. The “Growth inhibition, single agent, KB-8-5, i.p. site” value (KB-8-5 cells; vinblastine 100 μg/kg, reversing agents 0.136 mmol/kg, i.p. injection once daily days 3–6) was 3.3%, the IC50 (CEM/VLB100 cells; CEM/VLB100, 48 h, read-out: IC50 Modulator only) was greater than 15 µM and the IC50 (CEM/VLB100 cells; CEM/VLB100, read-out: IC50 (Modulator + Daunorubicin)) was 0.065 µM. For the same molecule, the IC50 (CEM/VLB100 cells; CEM/VLB100, read-out: IC50 (Modulator + Vinblastine)) was 0.02 µM, the “Ratio of IC50 values Daunorubicin/(Modulator + Daunorubicin)” value (CEM/VLB100 cells; [8]) was 15^c and the “Ratio of IC50 values Modulator/(Modulator + Daunorubicin)” value (CEM/VLB100 cells; [8]) was >231^c. The “Ratio of IC50 values Modulator/(Modulator + Vinblastine)” value (CEM/VLB100 cells; [8]) was >750^c, the “Ratio of IC50 values Vinblastine/(Modulator + Vinblastine)” value (CEM/VLB100 cells; [8]) was 250^c and the “fold reduction of [3H]vinblastine accumulation” value ([3]; 0–100 μM, 0.16 μM [3H]vinblastine) was “about 65 fold”. For the same molecule, the IC50 ([3]; 0.16 μM [3H]vinblastine, 0.5 mM ATP, 20 minutes, ambient temperature) was 3.84 µM, the Ki ([3]; double-reciprocal plots, 0.015–0.16 μM [3H]vinblastine, read-out: Ki, competitive with respect to vinblastine binding) was ~7.3 µM and 7.3 µM and the “mode of inhibition of vinblastine accumulation” value ([3]; kinetic analysis, double-reciprocal plots) was “competitive inhibition”. For the same molecule, the IC50 (Col2, colon cancer) was greater than 20 µg/mL, the IC50 [4] was greater than 20 µg/mL and the “inhibition of cell growth when used in combination with vinblastine” value (KB-V1 cells [5]; KB-V1 or KB-8-5 cells in hollow fibers implanted into NCr nu/nu mice) was “up to 75%”. For the same molecule, the “Calculated inhibition (vinblastine + reversing agent as single agents), KB-V1, i.p. site” value (KB-V1 cells [5]; [7]) was 2%, the “Calculated inhibition (vinblastine + reversing agent as single agents), KB-V1, s.c. site” value (KB-V1 cells [5]; [7]) was 3.3% and the “Observed inhibition from coadministration with vinblastine, KB-V1, s.c. site” value (KB-V1 cells [5]; vinblastine 250 μg/kg + reversing agent 0.136 mmol/kg) was 14.6 (P = 0.188) %. The “Observed inhibition from coadministration with vinblastine, KB-V1, i.p. site” value (KB-V1 cells [5]; vinblastine 250 μg/kg + reversing agent 0.136 mmol/kg, i.p. injection once daily days 3–6, listed as pervilleine A) was 68.6 (P < 0.0001) %, the “Growth inhibition, single agent, KB-V1, s.c. site” value (KB-V1 cells [5]; vinblastine 250 μg/kg, reversing agents 0.136 mmol/kg, i.p. injection once daily days 3–6) was 3.3% and the “Growth inhibition, single agent, KB-V1, i.p. site” value (KB-V1 cells [5]; vinblastine 250 μg/kg, reversing agents 0.136 mmol/kg, i.p. injection once daily days 3–6, fibers retrieved day 7, MTT) was 1%.
